Experimental data published in patent US20260116910A1, “POLYCYCLIC COMPOUNDS AND METHODS THEREOF” (HEPAITECH (BEIJING) BIOPHARMA TECHNOLOGY CO., LTD., priority 2021, published 2026).
“And” between values parts separate entries of the source, which are not always exact repeats. Equal entries are not always repeated. Where two headings read alike, the source gives them in different places.

What was measured:
human FXR (NR1H4) = molecular target: T1, human FXR (NR1H4) (Homo sapiens, UniProt Q96RI1); experiment: Human FXR (NR1H4) agonist assessment, FXRE-NanoLuc reporter in HEK293T cells; type: cell-based
T1 sequence (Q96RI1 1-476 isoform Q96RI1-1): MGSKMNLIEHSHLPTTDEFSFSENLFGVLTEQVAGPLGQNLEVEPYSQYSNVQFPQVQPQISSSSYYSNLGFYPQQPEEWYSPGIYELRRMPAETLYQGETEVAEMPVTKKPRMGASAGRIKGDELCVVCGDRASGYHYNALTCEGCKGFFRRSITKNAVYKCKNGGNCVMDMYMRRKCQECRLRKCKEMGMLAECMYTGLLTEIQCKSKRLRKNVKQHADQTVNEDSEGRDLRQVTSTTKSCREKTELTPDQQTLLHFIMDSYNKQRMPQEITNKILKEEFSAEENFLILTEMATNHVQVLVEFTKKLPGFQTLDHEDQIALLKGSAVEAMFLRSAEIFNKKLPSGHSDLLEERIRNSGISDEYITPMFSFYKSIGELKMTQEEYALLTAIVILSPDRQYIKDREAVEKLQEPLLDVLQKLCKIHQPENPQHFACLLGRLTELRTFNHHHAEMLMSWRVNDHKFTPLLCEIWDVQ
In short: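 Read-out was NanoLuc luminescence in culture medium, measured 5 min after adding coelenterazine. Cells were HEK293T stably carrying human FXR and an FXRE reporter, exposed to compound for 24 hr at 37 °C. Vehicle was 0.01% DMSO. EC50 was obtained from sigmoid fits of gradient dilutions.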

MRGPRX4 = MRGPRX4 (Homo sapiens, UniProt Q96LA9); experiment: MRGPRX4 activation, Fluo-8 Ca2+ FLIPR assay in HEK293T cells stably expressing MRGPRX4; type: cell-based; parameters: key to MRGPRX4 activation, Average / MRGPRX4 activation, Ave.: fluorescence change dF/F0
In short: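 Response measured as dF/F0: 30 s baseline, then 150 s after compound addition on FLIPR Tetra, in HHBS after 40-60 min room-temperature loading with 2 μM Fluo-8 AM.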

[1] = FXR activation, HEK293T FXRE-NanoLuc reporter, 24 hr
[2] = FXR activation, HEK293T FXRE-NanoLuc reporter, 24 hr, read-out: EC50
[3] = MRGPRX4 activation, Ca2+ fluorescence, no activation in tested range reported as III, read-out: Activity (EC50 μM)

MRGPRX4, sequence (Q96LA9 whole entry): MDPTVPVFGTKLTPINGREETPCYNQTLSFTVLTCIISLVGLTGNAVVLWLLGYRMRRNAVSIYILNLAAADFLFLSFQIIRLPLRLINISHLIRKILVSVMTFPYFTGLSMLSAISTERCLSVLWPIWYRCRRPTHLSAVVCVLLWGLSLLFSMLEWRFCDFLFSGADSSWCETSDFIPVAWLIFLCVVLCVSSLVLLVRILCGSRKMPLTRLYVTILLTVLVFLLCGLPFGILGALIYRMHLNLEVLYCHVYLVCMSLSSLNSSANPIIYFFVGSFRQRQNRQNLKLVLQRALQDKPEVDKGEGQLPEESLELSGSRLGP

SMILES	Efficacy (maximum measured induction of NanoLuc, normalized to CDCA set as 100%) (human FXR (NR1H4); [1])	EC50 (human FXR (NR1H4); [2])	MRGPRX4 activation, fluorescence change (dF/F0), Average (MRGPRX4; Conc. (Log[M]) −4)	MRGPRX4 activation, fluorescence change (dF/F0), Average (MRGPRX4; Conc. (Log[M]) −4.5)	MRGPRX4 activation, fluorescence change (dF/F0), Average (MRGPRX4; Conc. (Log[M]) −5)	MRGPRX4 activation, fluorescence change (dF/F0), Average (MRGPRX4; Conc. (Log[M]) −5.5)	MRGPRX4 activation, fluorescence change (dF/F0), Average (MRGPRX4; Conc. (Log[M]) −6)	MRGPRX4 activation, fluorescence change (dF/F0), Average (MRGPRX4; Conc. (Log[M]) −7)	MRGPRX4 activation, fluorescence change (dF/F0), Average (MRGPRX4; Conc. (Log[M]) −8)	MRGPRX4 activation, fluorescence change (dF/F0), Average (MRGPRX4; Conc. (Log[M]) −9)	EC50 (MRGPRX4; [3])	also measured
C[C@H](CC/C=C/C(=O)O)[C@H]1CC[C@H]2[C@@H]3CC[C@@H]4C[C@H](O)CC[C@]4(C)[C@H]3C[C@H](O)[C@]12C [RC-7]	C (100%<efficacy <=300%)	1 to 10 µM	0.049	0.030	−0.027	−0.038	−0.035	0.007	−0.030	−0.005	< 50 µM	
CC[C@H]1[C@@H](O)[C@@H]2[C@H](CC[C@]3(C)[C@@H]([C@H](C)CCC(=O)O)CC[C@@H]23)[C@@]2(C)CCCC[C@@H]12 [compound 10]		1 to 10 µM	0.019	−0.031	−0.037	−0.032	−0.064	−0.043	−0.045	−0.048	> 100 µM	Efficacy (maximum measured induction of NanoLuc, normalized to CDCA set as 100%) (human FXR (NR1H4)): C (key: A: efficacy >400%; B: 300%<efficacy <=400%; C: 100%<efficacy <=300%; D: efficacy <=100%)
C[C@H](CCC(=O)O)[C@H]1CC[C@H]2[C@@H]3CC[C@@H]4CC(=O)CC[C@]4(C)[C@H]3CC[C@]12C [compound 16]	C (100%<efficacy <=300%)		0.416	0.322	0.130	−0.020	−0.010	0.013	0.012	−0.005		EC50 (human FXR (NR1H4)): > 10 µM; EC50 (MRGPRX4): < 50 µM
C[C@H](CCC(=O)O)[C@H]1CC[C@H]2[C@@H]3CC[C@@H]4CCCC[C@]4(C)[C@H]3CC[C@]12C [compound 17]		1 to 10 µM	0.036 and 0.042								< 50 µM	Efficacy (maximum measured induction of NanoLuc, normalized to CDCA set as 100%) (human FXR (NR1H4)): B (key: A: efficacy >400%; B: 300%<efficacy <=400%; C: 100%<efficacy <=300%; D: efficacy <=100%)
CC(=O)CC[C@@H](C)[C@H]1CC[C@H]2[C@@H]3CC[C@@H]4CCCC[C@]4(C)[C@H]3CC[C@]12C [compound 21]	C (100%<efficacy <=300%)	1 to 10 µM									> 100 µM	
CC[C@H]1[C@@H](O)[C@@H]2[C@H](CC[C@]3(C)[C@@H]([C@H](C)CC(=O)O)CC[C@@H]23)[C@@]2(C)CCCC[C@@H]12 [compound 26]	C (100%<efficacy <=300%)	> 10 µM	−0.070	−0.059	−0.090	−0.062	−0.067	−0.072	−0.090	−0.084	> 100 µM	
CCOC(=O)C(=O)NCC[C@@H](C)[C@H]1CC[C@H]2[C@@H]3[C@H](O)[C@H](CC)[C@@H]4CCCC[C@]4(C)[C@H]3CC[C@]12C [compound 53]	C (100%<efficacy <=300%)	< 1 µM									> 100 µM	MRGPRX4 activation, Average (MRGPRX4; E3-9, Conc. (Log[M]) −4.0): 0.030; MRGPRX4 activation, Average (MRGPRX4; E3-9, Conc. (Log[M]) −4.5): 0.016; MRGPRX4 activation, Average (MRGPRX4; E3-9, Conc. (Log[M]) −5.0): 0.013; MRGPRX4 activation, Average (MRGPRX4; E3-9, Conc. (Log[M]) −5.4): 0.020; MRGPRX4 activation, Average (MRGPRX4; E3-9, Conc. (Log[M]) −5.9): 0.011; MRGPRX4 activation, Average (MRGPRX4; E3-9, Conc. (Log[M]) −6.4): 0.013; MRGPRX4 activation, Average (MRGPRX4; E3-9, Conc. (Log[M]) −6.9): 0.013; MRGPRX4 activation, Average (MRGPRX4; E3-9, Conc. (Log[M]) −7.3): 0.013; MRGPRX4 activation, Average (MRGPRX4; E3-9, Conc. (Log[M]) −7.8): 0.008; MRGPRX4 activation, Average (MRGPRX4; E3-9, Conc. (Log[M]) −8.3): 0.011
CC[C@H]1[C@@H](O)[C@@H]2[C@H](CC[C@]3(C)[C@@H]([C@H](C)CCC(=O)O)CC[C@@H]23)[C@@]2(C)CCC(F)(F)C[C@@H]12 [compound 55]	C (100%<efficacy <=300%)	< 1 µM									> 100 µM	MRGPRX4 activation, Average (MRGPRX4; E3-9, Conc. (Log[M]) −4.0): 0.006; MRGPRX4 activation, Average (MRGPRX4; E3-9, Conc. (Log[M]) −4.5): 0.004; MRGPRX4 activation, Average (MRGPRX4; E3-9, Conc. (Log[M]) −5.0): 0.018; MRGPRX4 activation, Average (MRGPRX4; E3-9, Conc. (Log[M]) −5.4): 0.023; MRGPRX4 activation, Average (MRGPRX4; E3-9, Conc. (Log[M]) −5.9): 0.019; MRGPRX4 activation, Average (MRGPRX4; E3-9, Conc. (Log[M]) −6.4): 0.019; MRGPRX4 activation, Average (MRGPRX4; E3-9, Conc. (Log[M]) −6.9): 0.016; MRGPRX4 activation, Average (MRGPRX4; E3-9, Conc. (Log[M]) −7.3): 0.019; MRGPRX4 activation, Average (MRGPRX4; E3-9, Conc. (Log[M]) −7.8): 0.016; MRGPRX4 activation, Average (MRGPRX4; E3-9, Conc. (Log[M]) −8.3): 0.018
CC[C@H]1[C@@H](O)[C@@H]2[C@H](CC[C@]3(C)[C@@H]([C@H](C)CO)CC[C@@H]23)[C@@]2(C)CCCC[C@@H]12 [compound 73]	A (efficacy >400%)	1 to 10 µM	0.098	0.042	−0.031	−0.031	−0.020	−0.023	−0.023	−0.014	> 100 µM	
C[C@H](CCCO)[C@H]1CC[C@H]2[C@@H]3CC[C@@H]4CCCC[C@]4(C)[C@H]3CC[C@]12C [compound 77]		1 to 10 µM	0.067	0.014	−0.029	−0.023	−0.017	−0.009	−0.014	−0.012	> 100 µM	Efficacy (maximum measured induction of NanoLuc, normalized to CDCA set as 100%) (human FXR (NR1H4)): B (key: A: efficacy >400%; B: 300%<efficacy <=400%; C: 100%<efficacy <=300%; D: efficacy <=100%)
C[C@H](CCCCC(=O)O)[C@H]1CC[C@H]2[C@@H]3CC[C@@H]4C[C@H](O)CC[C@]4(C)[C@H]3CC[C@]12C [compound 84]	B (300%<efficacy <=400%)	1 to 10 µM	0.287	0.065	0.021	−0.001	0.009	−0.014	0.002	−0.014	< 50 µM	
